Structures can show the parent of a compound that is named as a salt. Where two headings read alike, the source gives them in different places.
Tested on: LMP1 expression in Kem I cells
Assay: microbe, parasite or virus in culture
Assay type: cell-based, EBV
Conditions: for fold induction at 2.5 µM / fold induction at 1 µM: human gammaherpesvirus 4, 48 h; for Average LMP1 Fold Increase / Replicate 1-LMP1 Fold Increase / Replicate 2-LMP1 Fold Increase: Kem I cells, 48 hours; for Average LMP1 Fold Increase: average of replicates 1 and 2; for Replicate 1-LMP1 Fold Increase / Replicate 2-LMP1 Fold Increase: fold change in LMP1 transcript vs vehicle
[1] = read-out: Average LMP1 Fold Increase, Kem I cells, 2.5 uM, 48 hours, average of replicates 1 and 2
[2] = read-out: Replicate 1-LMP1 Fold Increase, Kem I cells, 2.5 uM, 48 hours, fold change in LMP1 transcript vs vehicle
[3] = read-out: Replicate 2-LMP1 Fold Increase, Kem I cells, 2.5 uM, 48 hours, fold change in LMP1 transcript vs vehicle

Row | Compound | fold induction at 2.5 µM [1] | fold induction at 2.5 µM [2] | fold induction at 2.5 µM [3] | Average LMP1 Fold Increase (2.5 uM) | Replicate 1-LMP1 Fold Increase (2.5 uM) | Replicate 2-LMP1 Fold Increase (2.5 uM) | other results
1 | C[C@H](CS)C(=O)N1CCC[C@H]1C(=O)O [Captopril] | 0.62 | 0.71 | 0.52 |  |  |  | 
2 | COc1ccccc1OCCNCC(O)COc1cccc2[nH]c3ccccc3c12 (stereo not drawn) [Carvedilol] | 0.88 | 0.89 | 0.87 |  |  |  | 
3 | Cc1ccc(-c2cc(C(F)(F)F)nn2-c2ccc(S(N)(=O)=O)cc2)cc1 [Celecoxib] | 0.62 | 0.63 | 0.62 |  |  |  | 
4 | COc1ccc([C@]2(C#N)CC[C@@H](C(=O)O)CC2)cc1OC1CCCC1 [Cilomilast] | 1.06 | 0.95 | 1.18 |  |  |  | 
5 | C[C@@H](NCCCc1cccc(C(F)(F)F)c1)c1cccc2ccccc12 [Cinacalcet HCl] | 0.75 | 1.17 | 0.34 |  |  |  | 
6 | Nc1nc(Cl)nc2c1ncn2[C@H]1C[C@H](O)[C@@H](CO)O1 [Cladribine] |  |  |  |  |  |  | fold induction at 1 µM (read-out: Average LMP1 Fold Increase, Kem I cells, 1 uM, 48 hours, average of replicates 1 and 2): 38.7; fold induction at 1 µM (read-out: Replicate 1-LMP1 Fold Increase, Kem I cells, 1 uM, 48 hours, fold change in LMP1 transcript vs vehicle): 71.4; fold induction at 1 µM (read-out: Replicate 2-LMP1 Fold Increase, Kem I cells, 1 uM, 48 hours, fold change in LMP1 transcript vs vehicle): 6.02
7 | CN1CCC[C@@H]1CCO[C@](C)(c1ccccc1)c1ccc(Cl)cc1 [Clemastine Fumarate] | 0.67 | 0.64 | 0.69 |  |  |  | 
8 | C=C1C(=O)O[C@@H]2/C=C(\C)CC/C=C(\C)CC[C@@H]12 [Costunolide] | 1.21 | 0.79 | 1.62 |  |  |  | 
9 | CC1(COc2ccc3c(c2)ncn3-c2ccc3cccc(N4CCC(N)CC4)c3n2)COC1 [Crenolanib (CP-868596)] |  |  |  | 4.04 | 2.56 | 5.53 | 
10 | C[C@H]1COC2=C1C(=O)C(=O)c1c2ccc2c1CCCC2(C)C [Cryptotanshinone] | 0.85 | 0.94 | 0.77 |  |  |  | 
11 | CC(=O)O[C@]1(C(C)=O)CC[C@H]2[C@@H]3C=C(Cl)C4=CC(=O)[C@@H]5C[C@@H]5[C@]4(C)[C@H]3CC[C@@]21C [Cyproterone Acetate] | 0.26 | 0.27 | 0.24 |  |  |  | 
12 | Nc1ccn([C@@H]2O[C@H](CO)[C@@H](O)[C@@H]2O)c(=O)n1 [Cytarbine] |  |  |  |  |  |  | Average LMP1 Fold Increase (1 uM): 2.31; Replicate 1-LMP1 Fold Increase (1 uM): 2.61; Replicate 2-LMP1 Fold Increase (1 uM): 2.01
13 | c1ccc(CNc2nc(NCc3ccccc3)c3ccccc3n2)cc1 [DBeQ] |  |  |  | 0.99 | 0.72 | 1.25 | 
14 | CNC(=O)c1cc(Oc2ccc(NC(=O)Nc3cc(C(C)(C)C)nn3-c3ccc4ncccc4c3)c(F)c2)ccn1 [DCC-2036 (Rebastinib)] |  |  |  | 0.38 | 0.50 | 0.25 | 
15 | CC(C)Oc1ccc(-c2cnc3c(-c4ccnc5ccccc45)cnn3c2)cc1 [DMH1] |  |  |  | 0.75 | 0.21 | 1.28 | 
16 | Cc1ccc2c(=O)c3cccc(CC(=O)O)c3oc2c1C [DMXAA (Vadimezan)] |  |  |  | 0.87 | 0.44 | 1.29 | 
17 | CC(C)(C)c1nc(-c2cccc(NS(=O)(=O)c3c(F)cccc3F)c2F)c(-c2ccnc(N)n2)s1 [Dabrafenib (GSK2118436)] |  |  |  | 0.92 | 0.61 | 1.22 | 
18 | CCC(CC)CC1(C(=O)Nc2ccccc2SC(=O)C(C)C)CCCCC1 [Dalcetrapib (JTT-705, RO4607381)] |  |  |  | 0.98 | 0.61 | 1.34 | 
19 | CCOc1ccc(Cc2cc([C@@H]3O[C@H](CO)[C@@H](O)[C@H](O)[C@H]3O)ccc2Cl)cc1 [Dapagliflozin] | 1.01 | 0.69 | 1.34 |  |  |  | 
20 | COc1cccc2c1C(=O)c1c(O)c3c(c(O)c1C2=O)C[C@@](O)(C(C)=O)C[C@@H]3O[C@H]1C[C@H](N)[C@H](O)[C@H](C)O1 [Daunorubicin HCl] | 242 | 221 | 262 |  |  |  | 
21 | COc1cc2nc(N3CCN(C(=O)C4COc5ccccc5O4)CC3)nc(N)c2cc1OC (stereo not drawn) [Doxazosin Mesylate] | 0.81 | 0.67 | 0.95 |  |  |  | 

From patent US20230053688A1, “METHODS TO ALTER LATENCY IN EBV+ MALIGNANCIES” (Cornell University, priority 2020, published 2023)
